Reference: publication PMC11645267, “Novel pharmacologic inhibition of lysine-specific demethylase 1 as a potential therapeutic for glioblastoma” (Cancer Gene Therapy, 2024)

How the values were obtained:
GSC1228 = test: Stemness / differentiation marker expression (qPCR, western blot); assay type: cell-based; details: GSC1228, 5 μM, 96 h
Description: Super-enhancers consist of enhancer clusters with abundant binding of transcription factors and are highly enriched with H3K27ac marks. The H3K4me2 increased regions included the MYC locus and H3K4me2 de novo regions comprised Nestin and SOX2 loci (Fig. 2F, Supplementary Fig. S5A). These regions were also identified as super-enhancers in GSCs using data from our previous study (Fig. 2F). Compared to the large increase in H3K4me2 in these regions, changes in H3K4me3 were subtle after S2172 treatment (only 2582 regions were acquired modification) (Fig. 2C). Increasing the me2/me3 ratio at H3K4 is associated with reduced gene expression.
A mRNA expression of stem cell marker genes following 96 h treatment of GSC1228 with S2172 (5 μM). The y-axis indicates the expression change relative to DMSO-treated cells. Error bar indicates the SD. *P < 0.05. B Left panel, western blot analysis of MYC, Nestin, and SOX2 after treatment of GSC1228 with either DMSO or S2172 (5 μM) for 96 h. β-actin (ACTB) was used as the loading control. Right panel, Quantification of band signal intensities from the western blot. C mRNA expression of the differentiation marker gene, GFAP, following treatment of GSC1228 with S2172 (5 μM) for 96 h. The y-axis indicates the expression change relative to DMSO-treated cells. Error bar indicates the SD. D PARP cleavage ratio after treatment of GSC1228, GSC222, and GSC316 with S2172 (5 μM). The ratio was calculated by dividing the cleaved-PARP band intensity by the full length-PARP band intensity. Error bar indicates the SD. *P < 0.05. E Representative Western blot results of RAPR after treatment of GSC1228, GSC222, and GSC316 with either DMSO or S2172 (5 μM) for 96 h. The full length-PARP band (106 kDa) and cleaved PARP band (89 kDa) are shown. β-actin (ACTB) was used as the loading control. n = 4. […]
instructions. For GSC cells, the CellTiter-Glo 3D Viability Assay (Promega, Madison, WI, USA) was used to measure the living cells. All proliferation experiments were repeated […]
The density of bands was quantified using ImageJ software (https://imagej.nih.gov/ij/). […]

GSC cells = test: RNA-seq analysis of enhancer/super-enhancer related genes; assay type: cell-based, human; details: 5 μM, 96 h, relative to DMSO
Method: GSC cells treated with either DMSO (n = 4) or S2172 (5 μM, n = 4) for 96 h and total RNA was isolated with RNeasy mini kit (Qiagen). The RNA purity was determined using Agilent Tape Station (Agilent Technologies). Illumina TruSeq RNA sample preparation was conducted and the samples were run on an Illumina Hiseq XTen (Illumina). RNA-seq was aligned using HISAT2 under default setting to Homo Sapience hg38 [35]. TPM were generated using StringTie and differential expression analysis were performed using DESeq2 [37].
RNA-seq analysis was conducted to examine gene expression changes associated with super-enhancers/enhancers. Among the genes with de novo H3K4me2 modification, the average log2 fold changes (S2172 treatment relative to DMSO treatment) were −0.12 ± 0.03 for super-enhancer-related genes and −0.01 ± 0.01 for typical enhancer-related genes (P = 0.0004) (Supplementary Fig. S6B). In contrast, among the genes with increased H3K4me2 modification, the average log2 fold changes were −0.04 ± 0.01 for super-enhancer-related genes and −0.07 ± 001 for typical enhancer-related genes (P = 0.028) (Supplementary Fig. S6C).

For `NC1CCC(NC2CC2c2cc(F)cc(F)c2OCc2ccccc2)CC1` (stereo not shown) [S2172], the “mRNA level of stemness marker genes MYC, Nestin, SOX2” value (GSC1228) was “significantly downregulated”, the “protein level of MYC, Nestin, SOX2” value (GSC1228) was “tended to be downregulated” and the “transcription of astrocytic marker GFAP” value (GSC1228) was “did not transcriptionally induce”. The “average log2 fold change of expression, super-enhancer-related genes with de novo H3K4me2” value (GSC cells) was −0.12 ± 0.03, the “average log2 fold change of expression, super-enhancer-related genes with increased H3K4me2” value (GSC cells) was −0.04 ± 0.01 and the “average log2 fold change of expression, typical enhancer-related genes with de novo H3K4me2” value (GSC cells) was −0.01 ± 0.01. For the same molecule, the “average log2 fold change of expression, typical enhancer-related genes with increased H3K4me2” value (GSC cells) was −0.07 ± 001.
